The results in this text go back to US12441691B2 (Cytokinetics, Inc., priority 2020, dated 2025).

In the test the test system is rabbit skeletal myofibrils (fast skeletal myofibrils). The test can be described thus: Activation of fast skeletal myofibrils (PUMA assay, AC1.4). The following applies: calcium at pCa25, AC1.4 = concentration at which the compound increased the enzymatic activity. It is filed as biochemical. The gist of the method:
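In 12 mM PIPES pH 6.8 with 2 mM MgCl2 and 1 mM DTT, Triton-washed rabbit skeletal myofibrils were run at the pCa25 calcium level. Myosin-made ADP was recycled through a PK/LDH coupled system; NADH loss read at 340 nm.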

With `O=C1Nc2ccccc2CN(C(=O)c2ccco2)[C@H]1C1CCCCC1` [Compound 128, (S)-3-cyclohexyl-4-(furan-2-carbonyl)-1,3,4,5-tetrahydro-2H-benzo[e][1,4]diazepin-2-one], the AC1.4 turned out to be 0.06 µM.
Regarding `CCC(CC)[C@H]1C(=O)Nc2ccccc2CN1C(N)=O` [Compound 129, (S)-2-oxo-3-(pentan-3-yl)-1,2,3,5-tetrahydro-4H-benzo[e][1,4]diazepine-4-carboxamide], the AC1.4 was found to be 0.10 µM.
Take `CC[C@H](C)[C@H]1C(=O)Nc2ccccc2CN1c1c(NC)c(=O)c1=O` [Compound 130, 3-((S)-3-((S)-sec-butyl)-2-oxo-1,2,3,5-tetrahydro-4H-benzo[e][1,4]diazepin-4-yl)-4-(methylamino)cyclobut-3-ene-1,2-dione]: the AC1.4 turned out to be 0.06 µM.
Take `CC[C@H](C)[C@H]1C(=O)Nc2ccccc2CN1c1c(N(C)C)c(=O)c1=O` [Compound 131, 3-((S)-3-((S)-sec-butyl)-2-oxo-1,2,3,5-tetrahydro-4H-benzo[e][1,4]diazepin-4-yl)-4-(dimethylamino)cyclobut-3-ene-1,2-dione]: the AC1.4 was found to be 0.02 µM.
Consider `CC[C@H](C)[C@H]1C(=O)Nc2ccccc2CN1c1c(NCCO)c(=O)c1=O` [Compound 132, 3-((S)-3-((S)-sec-butyl)-2-oxo-1,2,3,5-tetrahydro-4H-benzo[e][1,4]diazepin-4-yl)-4-((2-hydroxyethyl)amino)cyclobut-3-ene-1,2-dione], for which the AC1.4 turned out to be 0.07 µM.
Under `CC[C@H](C)[C@H]1C(=O)Nc2ccccc2CN1C(=O)N(C)CCN(C)C` [Compound 133, (S)-3-((S)-sec-butyl)-N-(2-(dimethylamino)ethyl)-N-methyl-2-oxo-1,2,3,5-tetrahydro-4H-benzo[e][1,4]diazepine-4-carboxamide] stands 0.48 µM; under `CC[C@H](C)[C@H]1C(=O)Nc2ccccc2CN1C(=O)N1CCC(O)CC1` [Compound 134, (S)-3-((S)-sec-butyl)-4-(4-hydroxypiperidine-1-carbonyl)-1,3,4,5-tetrahydro-2H-benzo[e][1,4]diazepin-2-one], 0.71 µM.
Under `CC[C@H](C)[C@H]1C(=O)Nc2ccccc2CN1C(=O)N(CCO)C(C)C` [Compound 135, (S)-3-((S)-sec-butyl)-N-(2-hydroxyethyl)-N-isopropyl-2-oxo-1,2,3,5-tetrahydro-4H-benzo[e][1,4]diazepine-4-carboxamide] stands 3.72 µM.
For `CC[C@H](C)[C@H]1C(=O)Nc2ccccc2CN1C(=O)N1C[C@@H](O)[C@@H](O)C1` [Compound 137, (S)-3-((S)-sec-butyl)-4-((3R,4S)-3,4-dihydroxypyrrolidine-1-carbonyl)-1,3,4,5-tetrahydro-2H-benzo[e][1,4]diazepin-2-one], the AC1.4 is 3.35 µM.
As for `CC[C@H](C)[C@H]1C(=O)Nc2ccccc2CN1C(=O)NC1CN(C)C1` [Compound 138, (S)-3-((S)-sec-butyl)-N-(1-methylazetidin-3-yl)-2-oxo-1,2,3,5-tetrahydro-4H-benzo[e][1,4]diazepine-4-carboxamide], the AC1.4 was found to be 0.52 µM.
On to `CC[C@H](C)[C@H]1C(=O)Nc2ccccc2CN1C(=O)NC1CN(C2COC2)C1` [Compound 139, (S)-3-((S)-sec-butyl)-N-(1-(oxetan-3-yl)azetidin-3-yl)-2-oxo-1,2,3,5-tetrahydro-4H-benzo[e][1,4]diazepine-4-carboxamide], for which the AC1.4 was 0.93 µM.
Regarding `CC[C@H](C)[C@H]1C(=O)Nc2ccccc2CN1C(=O)N1C[C@@H](O)[C@H](O)C1` [Compound 140, (S)-3-((S)-sec-butyl)-4-((3R,4R)-3,4-dihydroxypyrrolidine-1-carbonyl)-1,3,4,5-tetrahydro-2H-benzo[e][1,4]diazepin-2-one], the AC1.4 was determined as 4.74 µM.
For `CC[C@H](C)[C@H]1C(=O)Nc2ccccc2CN1C(=O)N[C@H]1CCN(CCO)C1` [Compound 141, (S)-3-((S)-sec-butyl)-N-((S)-1-(2-hydroxyethyl)pyrrolidin-3-yl)-2-oxo-1,2,3,5-tetrahydro-4H-benzo[e][1,4]diazepine-4-carboxamide] the value was 0.54 µM; for `CC[C@H](C)[C@H]1C(=O)Nc2ccccc2CN1C(=O)NC1CCNCC1` [Compound 142, (S)-3-((S)-sec-butyl)-2-oxo-N-(piperidin-4-yl)-1,2,3,5-tetrahydro-4H-benzo[e][1,4]diazepine-4-carboxamide], 0.36 µM; for `CC[C@H](C)[C@H]1C(=O)Nc2ccccc2CN1C(=O)N[C@@H]1CCN(C)C1` [Compound 143, (S)-3-((S)-sec-butyl)-N-((R)-1-methylpyrrolidin-3-yl)-2-oxo-1,2,3,5-tetrahydro-4H-benzo[e][1,4]diazepine-4-carboxamide], 0.35 µM.
Turning to `CC[C@H](C)[C@H]1C(=O)Nc2ccccc2CN1C#N` [Compound 145, (S)-3-((S)-sec-butyl)-2-oxo-1,2,3,5-tetrahydro-4H-benzo[e][1,4]diazepine-4-carbonitrile], the AC1.4 came out at 0.50 µM.
Under `CC[C@H](C)[C@H]1C(=O)Nc2ccccc2CN1C(=N)NO` [Compound 146, (S)-3-((S)-sec-butyl)-N-hydroxy-2-oxo-1,2,3,5-tetrahydro-4H-benzo[e][1,4]diazepine-4-carboximidamide] stands 0.30 µM; under `CC[C@H](C)[C@H]1C(=O)Nc2ccccc2CN1C(=O)C(C)(C)C(N)=O` [Compound 147, 3-((S)-3-((S)-sec-butyl)-2-oxo-1,2,3,5-tetrahydro-4H-benzo[e][1,4]diazepin-4-yl)-2,2-dimethyl-3-oxopropanamide], 2.57 µM.
In the case of `CC[C@H](C)[C@H]1C(=O)Nc2ccccc2CN1C(=O)C1CC(=O)N(C)C1` (stereo partly drawn) [Compound 148], the AC1.4 is 0.98 µM.
Take `CC[C@H](C)[C@H]1C(=O)Nc2ccccc2CN1C(=O)CC(C)(C)O` [Compound 149]: the AC1.4 is 2.08 µM.
Under `CC[C@H](C)[C@H]1C(=O)Nc2ccccc2CN1C(=O)c1cc2ncccc2[nH]1` [Compound 150, (S)-3-((S)-sec-butyl)-4-(1H-pyrrolo[3,2-b]pyridine-2-carbonyl)-1,3,4,5-tetrahydro-2H-benzo[e][1,4]diazepin-2-one] stands 0.03 µM; under `CC[C@H](C)[C@H]1C(=O)Nc2ccccc2CN1C(=O)c1cc2ccncc2[nH]1` [Compound 151, (S)-3-((S)-sec-butyl)-4-(1H-pyrrolo[2,3-c]pyridine-2-carbonyl)-1,3,4,5-tetrahydro-2H-benzo[e][1,4]diazepin-2-one], 0.06 µM; under `CC[C@H](C)[C@H]1C(=O)Nc2ccccc2CN1C(=O)c1ncn[nH]1` [Compound 152, (S)-3-((S)-sec-butyl)-4-(1H-1,2,4-triazole-5-carbonyl)-1,3,4,5-tetrahydro-2H-benzo[e][1,4]diazepin-2-one], 0.07 µM.
`CC[C@H](C)[C@H]1C(=O)Nc2ccccc2CN1C(=O)c1c[nH]nn1` [Compound 153, (S)-3-((S)-sec-butyl)-4-(1H-1,2,3-triazole-4-carbonyl)-1,3,4,5-tetrahydro-2H-benzo[e][1,4]diazepin-2-one]: the AC1.4 turned out to be 0.09 µM.
On to `CC[C@H](C)[C@H]1C(=O)Nc2ccccc2CN1C(=O)c1cccc(=O)n1C` [Compound 154, (S)-3-((S)-sec-butyl)-4-(1-methyl-6-oxo-1,6-dihydropyridine-2-carbonyl)-1,3,4,5-tetrahydro-2H-benzo[e][1,4]diazepin-2-one], for which the AC1.4 was determined as 0.65 µM.
In the case of `CC[C@H](C)[C@H]1C(=O)Nc2ccccc2CN1C(=O)c1ccc(=O)[nH]c1` [Compound 155, (S)-3-((S)-sec-butyl)-4-(6-oxo-1,6-dihydropyridine-3-carbonyl)-1,3,4,5-tetrahydro-2H-benzo[e][1,4]diazepin-2-one], the AC1.4 was 0.54 µM.
As to `CC[C@H](C)[C@H]1C(=O)Nc2ccccc2CN1C(=O)c1ccc(=O)n(C)c1` [Compound 156, (S)-3-((S)-sec-butyl)-4-(1-methyl-6-oxo-1,6-dihydropyridine-3-carbonyl)-1,3,4,5-tetrahydro-2H-benzo[e][1,4]diazepin-2-one], the AC1.4 was 0.90 µM.
`CC[C@H](C)[C@H]1C(=O)Nc2ccccc2CN1C(=O)c1cnn(C)n1` [Compound 157, (S)-3-((S)-sec-butyl)-4-(2-methyl-2H-1,2,3-triazole-4-carbonyl)-1,3,4,5-tetrahydro-2H-benzo[e][1,4]diazepin-2-one]: the AC1.4 worked out at 0.11 µM.
Regarding `CC[C@H](C)[C@H]1C(=O)Nc2ccccc2CN1C(=O)c1ccc(C(N)=O)nc1` [Compound 158, 5-((S)-3-((S)-sec-butyl)-2-oxo-2,3,4,5-tetrahydro-1H-benzo[e][1,4]diazepine-4-carbonyl)picolinamide], the AC1.4 came out at 0.44 µM.
For `CC[C@H](C)[C@H]1C(=O)Nc2ccccc2CN1C(=O)c1cnnn1C` [Compound 159, (S)-3-((S)-sec-butyl)-4-(1-methyl-1H-1,2,3-triazole-5-carbonyl)-1,3,4,5-tetrahydro-2H-benzo[e][1,4]diazepin-2-one], the AC1.4 was determined as 0.59 µM.
For `CC[C@H](C)[C@H]1C(=O)Nc2ccccc2CN1C(=O)c1ncc[nH]1` [Compound 160, (S)-3-((S)-sec-butyl)-4-(1H-imidazole-2-carbonyl)-1,3,4,5-tetrahydro-2H-benzo[e][1,4]diazepin-2-one] the value was 0.16 µM; for `CC[C@H](C)[C@H]1C(=O)Nc2ccccc2CN1C(=O)C1CCC(=O)N1` (stereo partly drawn) [Compound 161, (3S)-3-((S)-sec-butyl)-4-(5-oxopyrrolidine-2-carbonyl)-1,3,4,5-tetrahydro-2H-benzo[e][1,4]diazepin-2-one], 2.25 µM.
Take `CC[C@H](C)[C@H]1C(=O)Nc2ccccc2CN1C(=O)c1cncc(C(N)=O)c1` [Compound 162, 5-((S)-3-((S)-sec-butyl)-2-oxo-2,3,4,5-tetrahydro-1H-benzo[e][1,4]diazepine-4-carbonyl)nicotinamide]: the AC1.4 amounted to 0.11 µM.
